Biological target: T1, Broad substrate specificity ATP-binding cassette transporter ABCG2 (Homo sapiens, UniProt Q9UNQ0)
T1 sequence (Q9UNQ0 whole entry): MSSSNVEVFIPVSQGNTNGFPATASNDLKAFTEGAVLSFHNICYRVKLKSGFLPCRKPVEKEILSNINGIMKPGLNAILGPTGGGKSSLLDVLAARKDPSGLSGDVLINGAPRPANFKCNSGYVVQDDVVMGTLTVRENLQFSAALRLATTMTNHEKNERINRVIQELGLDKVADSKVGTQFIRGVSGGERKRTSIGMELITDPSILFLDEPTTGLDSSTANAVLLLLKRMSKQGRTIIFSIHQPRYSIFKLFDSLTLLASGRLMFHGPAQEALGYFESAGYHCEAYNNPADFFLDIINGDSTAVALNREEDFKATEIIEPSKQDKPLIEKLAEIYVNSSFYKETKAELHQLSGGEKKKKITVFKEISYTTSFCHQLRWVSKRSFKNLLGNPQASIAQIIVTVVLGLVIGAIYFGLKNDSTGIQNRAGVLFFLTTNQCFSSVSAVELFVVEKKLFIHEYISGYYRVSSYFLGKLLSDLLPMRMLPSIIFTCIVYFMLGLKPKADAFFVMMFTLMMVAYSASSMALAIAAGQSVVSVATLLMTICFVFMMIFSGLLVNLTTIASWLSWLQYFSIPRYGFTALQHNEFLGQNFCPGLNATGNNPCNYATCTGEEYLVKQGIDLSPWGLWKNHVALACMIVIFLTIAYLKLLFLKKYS
Assay: Screening Assay for ABCG2 Inhibitors
Conditions: pH 7.4; 37 °C
Protocol: IC50 and maximal activities for inhibition of PhA accumulation were determined from dose-response curves. The accumulation of PhA, a fluorescent ABCG2 substrate, formed the basis of the assay for inhibitors of ABCG2 activity. NCI-H460/MX20 cells were transferred to black-walled, clear-bottomed 384-well polylysine-coated assay plates (Corning) and allowed to attach for several hours. PhA was added, immediately followed by compounds or vehicle (DMSO/PBS) control and incubated for an additional 18 h. After removal of medium and washing with PBS containing Ca2+ and Mg2+, fluorescence intensity was read on a Tecan Safire fluorescence plate reader in bottom read mode (395 nm excitation, 670 nm emission). Each plate had control wells containing Fumitremorgin C (FTC). Data were normalized to FTC and reported as the percentage of FTC fluorescence. Apparent IC50 values were calculated from dose-response data using SigmaPlot (SPSS, Inc., Chicago) 4-parameter logistic nonlinear regression analysis.

SMILES | IC50 [µM]
CC1CCC2(OC1)OC1C(O)C3C4CCC5CC(OC6OC(CO)C(OC7OC(CO)C(O)C(OC8OCC(O)C(O)C8O)C7OC7OC(CO)C(O)C(OC8OC(CO)C(O)C(O)C8O)C7O)C(O)C6O)C(O)CC5(C)C4CCC3(C)C1C2C (stereo not given) [Digitonin] | 9.7
CC(C)C1(NC(=O)C2CC3c4cccc5[nH]cc(c45)CC3N(C)C2)OC2(O)C3CCCN3C(=O)C(Cc3ccccc3)N2C1=O (stereo not given) [Dihydroergocristine] | 11.8
Cc1[nH]n(C(=O)c2ccncc2)c(=O)c1N=Nc1ccc2ccccc2c1 [NSC303769] | 5.8

Further lines, results first:

IC50 [µM] | SMILES
5.4 | Cc1ccc(NC(=O)c2cc3ccccc3cc2O)c(C)c1 [NSC306698]
4.6 | NN=C1C(OC(=O)Nc2cccc(Cl)c2)=Nc2ccccc21 [NSC320852]

Reference: BindingDB's records for doi:10.1158/1535-7163.MCT-07-0352 (Saic-Frederick, 2007)
